{"source": "patent US4652562A", "about": "“Quinoline derivatives and pharmaceutical compositions” (Egis Gyogyszergyar, priority 1985, dated 1987)", "key": {"[1]": {"test_system": "hypoxic cells", "settings": "literature (Wong et al. 1978); cited from earlier work"}, "[2]": {"test_system": "hypoxic Chinese hamster ovary cells", "assay": "Radiosensitization of hypoxic Chinese hamster ovary cells, radiation survival curves (Do, Dq, N)", "format": "cell-based", "settings": "for Dq (quasi threshold dose): Dq = Do ln N, minimum dose necessary to appearance of cell killing; for Do (mean lethal dose): hypoxic CHO cells, untreated controls 3.75-3.8 Gy", "source_text": "As is known [T. W. Wong, G. F. Whitmore and S. Gulyas: Radiat. Res. 75, 541-555 (1978)], parameters derived from radiation survival curves can be used for characterization of modifying effect, e.g. the slope of the exponential portion of survival curve and the calculated mean lethal dose (Do) as well as the overall extrapolation number (N).\nThe dose multiplication radiosensitization (DMR) means the ability of a given compound to increase the slope of the survival curve and consequently to decrease the mean lethal dose (Do).\nOn the effect of dose-additive radiosensitization (DAR) there is a reduction in the shoulder region of radiation survival curves, and in the best cases the sigmoid type survival curves characteristic of mammalian cells change into exponential ones.\nFor the degree of radiation modification, the quasi threshold dose (Dq) can be used, as well. This dose represents the width of shoulder region of radiation survival curves (Dq =Do ln N). The meaning of this measure from radiobiological point of view is the minimal dose necessary to produce appreciable cell killing effect.\n1. […] According to the literature data, studies were undertaken on the same test-systems [Chinese hamster ovary cells cultured in vitro (CHO) and under similar circumstances (oxygenic- and hypoxic conditions, α-MEM with 10% foetal calf serum)].\nExperiments were undertaken with hypoxic Chinese hamster ovary cells.\n4. Determination of the quasi threshold dose (Dq). These values indicate the minimum dose necessary to the appearance of the end point (cell killing) studied from biological point of view."}, "[3]": {"assay": "Toxicity in test animals (CFLP mice), LD50 per os", "settings": "mouse, in vivo, po"}, "[4]": {"settings": "cited from earlier work"}}, "data": [{"smiles": "COCC(O)Cn1ccnc1[N+](=O)[O-]", "note": "(stereo not shown) [Misonidazole, 3-methoxy-1-(2-nitro-1-imidazole-1-yl)-2-propanol]", "values": [{"measurement": "degree of dose-multiplicative and dose-additive radiosensitization", "setting": "[1]", "result": "only in a small degree"}, {"measurement": "Dq (quasi threshold dose)", "setting": "[2]", "result": 5, "unit": "Gy"}, {"measurement": "Dq (quasi threshold dose)", "setting": "[2]; listed as misonidazole", "result": "above 5 Gy"}, {"measurement": "Do (mean lethal dose)", "setting": "[2]", "result": 2.5, "unit": "Gy"}]}, {"smiles": "NC(=Nc1c([N+](=O)[O-])cnc2ccccc12)N1CCOCC1", "note": "[Example 1, N-(3-Nitro-4-quinolyl)-morpholino carboxamidine]", "values": [{"measurement": "LD50", "setting": "[3]", "result": "> 2000", "unit": "mg/kg"}, {"measurement": "Dq (quasi threshold dose)", "setting": "[2]", "result": 0, "unit": "Gy"}, {"measurement": "Do (mean lethal dose)", "setting": "[2]", "result": 1.7, "unit": "Gy"}]}, {"smiles": "CN(C)C(=O)N=NC(=O)N(C)C", "note": "[Diamide, tetramethyl-diazene-dicarboxamide]", "values": [{"measurement": "dose-multiplicative or dose-additive radiosensitization", "setting": "[4]; 0° C., depending on drug concentration, Harris et al. 1975", "result": "either dose-multiplicative- or dose-additive-radiosensitization could be observed at a lower temperature (0° C.) depending on the drug concentration applied, but both effects did not appear simultaneously"}, {"measurement": "toxicity", "setting": "[4]; 37° C.", "result": "extremely toxic"}, {"measurement": "Do (mean lethal dose)", "setting": "[2]", "result": 3.3, "unit": "Gy"}]}]}
